Measured values reported in patent US9302999B2, “Substituted triazoles as herbicides” (E. I. DU PONT DE NEMOURS AND COMPANY, priority 2012, dated 2016).

How the values were obtained:
Assay type in all cases: in vivo
[1] = system: wheat (Triticum aestivum); test: Test A pre-/postemergence: wheat
Procedure, shortened: (§1)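 Each species received preemergence soil-directed spraying and, at the same time, postemergence treatment of seedlings 2–10 cm tall. Formulation: non-phytotoxic solvent mixture including surfactant. Response assessed visually about ten days on, relative to untreated controls, 0–100 scale.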

[2] = system: velvetleaf (Abutilon theophrasti); test: Test A pre-/postemergence: velvetleaf
Procedure, shortened: as §1

[3] = system: rice (Oryza sativa); test: Test B flooded paddy: rice; details: Flood, applied to paddy water at 2-leaf stage, visually evaluated after 13 to 15 days
Procedure, shortened: (§2)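 Visual ratings on a 0–100 scale, where 0 means no effect and 100 means complete control, were assigned by comparison with controls 13 to 15 days after treatment. Compounds went into paddy water over 2-leaf plants flooded to 3 cm.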

[4] = system: ducksalad (Heteranthera limosa); test: Test B flooded paddy: ducksalad; details: Flood, applied to paddy water at 2-leaf stage, visually evaluated after 13 to 15 days
Procedure, shortened: as §2

[5] = system: corn (Zea mays); test: Test A pre-/postemergence: corn
Procedure, shortened: as §1

[6] = system: foxtail, giant (giant foxtail, Setaria faberii); test: Test A pre-/postemergence: foxtail, giant
Procedure, shortened: as §1

[7] = system: barnyardgrass (Echinochloa crus-galli); test: Test A pre-/postemergence: barnyardgrass
Procedure, shortened: as §1

[8] = system: barnyardgrass (Echinochloa crus-galli); test: Test B flooded paddy: barnyardgrass; details: Flood, applied to paddy water at 2-leaf stage, visually evaluated after 13 to 15 days
Procedure, shortened: as §2

[9] = system: crabgrass, large (large crabgrass, Digitaria sanguinalis); test: Test A pre-/postemergence: crabgrass, large
Procedure, shortened: as §1

[10] = system: sedge, umbrella (small-flower umbrella sedge Cyperus difformis); test: Test B flooded paddy: sedge, umbrella; details: Flood, applied to paddy water at 2-leaf stage, visually evaluated after 13 to 15 days
Procedure, shortened: as §2

[11] = system: morningglory (Ipomoea spp.); test: Test A pre-/postemergence: morningglory
Procedure, shortened: as §1

[12] = system: pigweed (Amaranthus retroflexus); test: Test A pre-/postemergence: pigweed
Procedure, shortened: as §1

[13] = Postemergence, 125 g ai/ha, 0 to 100 scale, 0 is no effect, 100 is complete control
[14] = Postemergence, 500 g ai/ha, visual rating on 0 to 100 scale (0 no effect, 100 complete control), approximately ten days
[15] = Preemergence, 125 g ai/ha, 0 to 100 scale where 0 is no effect and 100 is complete control
[16] = Preemergence, 500 g ai/ha, 0 to 100 scale (0 no effect, 100 complete control)
[17] = Postemergence, 500 g ai/ha, 0 to 100 scale, 0 is no effect, 100 is complete control

Structure (SMILES): CC(C)c1nn(-c2ccc(F)cc2)nc1Cc1cccc(C(F)(F)F)c1 [Compound 150]
- Plant response rating, Wheat [1, 13]: 0
- Wheat plant response rating [1, 14]: 0
- Plant response rating, Wheat [1, 15]: 0
- Plant response rating, Wheat [1, 16]: 0
- Plant response rating, Velvetleaf [2, 13]: 0
- Velvetleaf plant response rating [2, 14]: 10
- Plant response rating, Velvetleaf [2, 15]: 0
- Plant response rating, Velvetleaf [2, 16]: 0
- Plant response rating, Rice (0 to 100 scale, 0 is no effect, 100 is complete control) ([3]; 250 g ai/ha): 0
- Plant response rating, Ducksalad (0 to 100 scale, 0 is no effect, 100 is complete control) ([4]; 250 g ai/ha): 0
- Plant response rating, Corn [5, 13]: 0
- Corn plant response rating [5, 14]: 10
- Plant response rating, Corn [5, 15]: 0
- Plant response rating, Corn [5, 16]: 0
- Plant response rating, Foxtail, Giant [6, 13]: 0
- Foxtail, Giant plant response rating [6, 14]: 0
- Plant response rating, Foxtail, Giant [6, 15]: 0
- Plant response rating, Foxtail, Giant [6, 16]: 0
- Plant response rating, Barnyardgrass [7, 13]: 0
- Barnyardgrass plant response rating [7, 14]: 0
- Plant response rating, Barnyardgrass [7, 15]: 0
- Plant response rating, Barnyardgrass [7, 16]: 0
- Plant response rating, Barnyardgrass (0 to 100 scale, 0 is no effect, 100 is complete control) ([8]; 250 g ai/ha): 20
- Plant response rating, Crabgrass, Large [9, 13]: 0
- Crabgrass, Large plant response rating [9, 14]: 20
- Plant response rating, Crabgrass, Large [9, 15]: 0
- Plant response rating, Crabgrass, Large [9, 16]: 0
- Plant response rating, Sedge, Umbrella (0 to 100 scale, 0 is no effect, 100 is complete control) ([10]; 250 g ai/ha): 0
- Plant response rating, Morningglory [11, 13]: 0
- Morningglory plant response rating [11, 14]: 0
- Plant response rating, Morningglory [11, 15]: 0
- Plant response rating, Morningglory [11, 16]: 0
- Plant response rating, Pigweed [12, 13]: 10
- Pigweed plant response rating [12, 14]: 50
- Plant response rating, Pigweed [12, 15]: 0
- Plant response rating, Pigweed [12, 16]: 0

Structure (SMILES): CC(C)Cc1nn(-c2ccc(C(F)(F)F)cc2)nc1Oc1ccnc(C(F)(F)F)c1 [Compound 186]
- Plant response rating, Wheat [1, 13]: 0
- Wheat plant response rating [1, 17]: 0
- Plant response rating, Wheat [1, 15]: 0
- Plant response rating, Wheat [1, 16]: 0
- Plant response rating, Velvetleaf [2, 13]: 0
- Velvetleaf plant response rating [2, 17]: 20
- Plant response rating, Velvetleaf [2, 15]: 0
- Plant response rating, Velvetleaf [2, 16]: 0
- Plant response rating, Rice (0 to 100 scale, 0 is no effect, 100 is complete control) ([3]; 125 g ai/ha): 0
- Plant response rating, Ducksalad (0 to 100 scale, 0 is no effect, 100 is complete control) ([4]; 125 g ai/ha): 0
- Plant response rating, Corn [5, 13]: 10
- Corn plant response rating [5, 17]: 20
- Plant response rating, Corn [5, 15]: 0
- Plant response rating, Corn [5, 16]: 0
- Plant response rating, Foxtail, Giant [6, 13]: 0
- Foxtail, Giant plant response rating [6, 17]: 0
- Plant response rating, Foxtail, Giant [6, 15]: 0
- Plant response rating, Foxtail, Giant [6, 16]: 0
- Plant response rating, Barnyardgrass [7, 13]: 0
- Barnyardgrass plant response rating [7, 17]: 0
- Plant response rating, Barnyardgrass [7, 15]: 0
- Plant response rating, Barnyardgrass [7, 16]: 0
- Plant response rating, Barnyardgrass (0 to 100 scale, 0 is no effect, 100 is complete control) ([8]; 125 g ai/ha): 0
- Plant response rating, Crabgrass, Large [9, 13]: 0
- Crabgrass, Large plant response rating [9, 17]: 0
- Plant response rating, Crabgrass, Large [9, 15]: 0
- Plant response rating, Crabgrass, Large [9, 16]: 0
- Plant response rating, Sedge, Umbrella (0 to 100 scale, 0 is no effect, 100 is complete control) ([10]; 125 g ai/ha): 0
- Plant response rating, Morningglory [11, 13]: 0
- Morningglory plant response rating [11, 17]: 10
- Plant response rating, Morningglory [11, 15]: 0
- Plant response rating, Morningglory [11, 16]: 0
- Plant response rating, Pigweed [12, 13]: 20
- Pigweed plant response rating [12, 17]: 60
- Plant response rating, Pigweed [12, 15]: 0
- Plant response rating, Pigweed [12, 16]: 0
